Experimental data taken from PubChem BioAssay AID1902 (Broad Institute, 2009).
pEC50: −log10 of the molar value. Activity calls are given as the source filed them.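 The calls were made as follows: active = EC50 no more than a set limit of log units above the highest dose; inactive = the rest.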

biological target: S. pyogenes SKKanGAS, kanamycin survival, BacTiterGlo, 6 h; assay: S. pyogenes SKKanGAS kanamycin growth inhibitors – SKKanGAS strain, luminescence, dose confirmation, streptokinase promoter inhibitor project, dose response (AID 1902);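 also: lower survival reflects blocked streptokinase promoter driving kanamycin resistance gene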

Row | Compound | pEC50 | EC50
1 | CC(Oc1ccc(Cl)cc1Cl)C(=O)NC1=NN(c2ccccc2)C(=O)C1 (configuration not stated) | 5.54 | 
2 | CCN(CC)S(=O)(=O)c1cc(OC)ccc1N=Nc1ccc(O)c2ncccc12 | 5.72 | 
3 | COc1ccc2nc(C3CCCCC3)nc(C3CCCCC3)c2c1 | 5.57 | 
4 | O=C(Cc1csc(NC(=O)Nc2cccc(Cl)c2)n1)NCc1cccnc1 | 5.36 | 
5 | Nc1[nH]n2c(=O)cc(-c3ccccc3)nc2c1N=Nc1ccc2c(c1)OCO2 | 5.65 | 
6 | Cc1csc(Nc2ccc(Cl)cc2)[n+]1-c1ccc(Cl)cc1 | 4.95 | 
7 | CCCCn1c(SCC(=O)c2ccccc2)nc2c1c(=O)[nH]c(=O)n2C | 5.46 | 
8 | Clc1ccc(C2C3=C(Nc4ncnn42)c2ccccc2CC3)cc1 (configuration not stated) | 4.94 | 
9 | CCOC(=O)c1c(-c2ccc(C)o2)csc1NC(=O)COC(=O)c1ccc(NC(N)=O)cc1 | 5.60 | 
10 | CNC1=C(N(C(C)=O)c2ccc(Br)cc2)C(=O)c2ccccc2C1=O | 5.20 | 
11 | Cc1ccc(-n2c(SCC(=O)Nc3ccc4c5c(cccc35)CC4)nc(O)cc2=O)cc1 | 4.93 | 
12 | O=C(NC(=S)NNC(=O)c1cccs1)c1ccccc1 | 5.24 | 
13 | C/C(=N\NC(=O)c1cc2ccccc2cc1O)c1ccc2c(c1)OCO2 | 5.66 | 
14 | CCOC(=O)c1sc(NC(=O)CNCc2ccccn2)c(C(=O)OCC)c1C | > 7.22 | 
15 | COC(=O)c1ccc(/C=C/c2ccc3cccc(OC(C)=O)c3n2)cc1 | 5.93 | 
16 | O=C(Nc1ccc(-c2csc(Nc3ccccc3)n2)cc1)c1cccc(C(F)(F)F)c1 |  | > 15 µM (inactive)
17 | O=C1C=CC(=O)N1CCNc1ncc(C(F)(F)F)cc1Cl | 4.98 | 
18 | Cc1nc(NC(=O)c2ccc(Cl)cc2)sc1-c1csc(Nc2cccc(F)c2)n1 | 5.57 | 
19 | CCN1C(=O)C(CC(=O)Nc2ccc(Br)cc2)N(CCCc2ccccc2)C1=S (configuration not stated) | 5.54 | 
20 | COc1ccc(NC2=NCC(Cc3ccc(Br)cc3)S2)cc1 (configuration not stated) | 4.93 | 
21 | COc1ccc(/C=C/C(=O)NC(=S)NNC(=O)c2cc(OC)c(OC)c(OC)c2)cc1OC | 5.83 | 
22 | COc1ccc(OC)c(NC(=O)NC2CCCc3ccccc32)c1 (configuration not stated) |  | > 15 µM (inactive)
23 | C[C@H]1[C@H](C)CC[C@]2(C(=O)O)CC[C@]3(C)C(=CC[C@@H]4[C@@]5(C)C[C@@H](O)[C@H](O)C(C)(C)[C@@H]5CC[C@]43C)[C@H]12 | 5.55 | 
24 | COc1ccc(-c2oc(NC(=O)CSc3ncn[nH]3)c(C#N)c2-c2ccc(OC)cc2)cc1 | 5.44 | 
25 | COc1cccc(-c2coc3c(C)c4oc(=O)c(CCC(=O)O)c(C)c4cc23)c1 | 5.43 | 
26 | Cc1ccc(/C=C/C(=O)c2ccccc(=O)c2O)c(C)c1 | 5.45 | 

Row | Compound | pEC50 | EC50
27 | CCOc1cccc(/C=N/NC(=O)c2ccc3c(c2)OCCO3)c1O | 5.90 | 
28 | CCCCCC(=O)NNC(=O)c1c(O)c2ccccc2n(CC)c1=O | 5.87 | 
29 | Cc1cccc(C)c1-n1cccc1/C=C1\SC(=S)N(c2cccc(C(=O)O)c2)C1=O | 5.65 | 
30 | O=C(Nc1nnc(-c2ccncc2)o1)c1ccc(Br)s1 | 5.48 | 
31 | CCN1/C(=C\C=C\C2=[N+](CC)c3ccccc3C2(C)C)C(C)(C)c2ccccc21 | 5.13 | 
32 | Cc1ccc(CN2CC(C(=O)Nc3nnc(SCc4c(Cl)cccc4Cl)s3)CC2=O)cc1 (configuration not stated) | 5.31 | 
33 | CCC(C)(C)c1ccc(OCCCC[n+]2cccc(C)c2)c(C(C)(C)CC)c1 | 5.11 | 
34 | CC(C)(C)c1cc(Cl)c(O)c(NC(=S)NC(=O)c2cccnc2)c1 | 6.46 | 
35 | O=C(NNC(=S)NC(=O)c1cn(-c2ccccc2)nc1-c1ccccc1)c1ccncc1 | 6.82 | 
36 | Cc1ccc(CNC(=S)Nc2ccc(NS(=O)(=O)c3ccc(C)cc3)cc2)cc1 | 5.08 | 
37 | Cc1cc(O)c(NC(=S)NC(=O)c2ccc(-c3ccc(Cl)cc3)o2)cc1C | 6.12 | 
38 | COc1cc(C(=O)NS(=O)(=O)c2ccccc2C)ccc1Cc1cn(C)c2ccc(NC(=O)OC3CCCC3)cc12 | 5.69 | 
39 | Cc1cc(C)n(-c2nc(NCCCO)c3c4c(sc3n2)CCCC4)n1 | 5.66 | 
40 | Cc1cc(N/N=C\c2ccc(Br)cc2)nc(-n2nc(C)cc2C)n1 | 6.38 | 
41 | Cc1nn(-c2ccccc2)c(C)c1/C=N/NC(=O)c1cc(-c2ccc(Br)s2)[nH]n1 | 5.37 | 
42 | CCOc1ccc(NC(=S)N=Nc2c(O)[nH]c3ccccc23)cc1 | 6.28 | 
43 | C#CCOCCOCCOCCNc1nc(N2CCN(C(=O)CCCCCCCCCCNC(=O)[C@H](CCCCN)n3cc(C[C@@H](C)CC)nn3)CC2)nc(N2CCN(C(=O)CCCCCCCCCCNC(=O)[C@H](CCCCN)n3cc(C[C@@H](C)CC)nn3)CC2)n1 | 5.29 | 
44 | CCOC(=O)c1ccc(NC(=O)CC2S/C(=N/N=C/c3c[nH]c4ccccc34)NC2=O)cc1 (configuration not stated) | 5.11 | 
45 | Oc1[nH]c2ccccc2c1N=NC(=S)NCCc1ccccc1 | 5.36 | 
46 | O=C(CSc1nnc(NC(=O)c2ccccc2[N+](=O)[O-])s1)NC1CCCC1 |  | > 15 µM (inactive)
47 | CC1CCCN(S(=O)(=O)c2ccc(C(=O)Nc3nnc(C4=COCCO4)o3)cc2)C1 (configuration not stated) | 5.28 | 
48 | CCOc1ccc(C(=O)NC(=S)Nc2ccc(NC(=O)CC)cc2)cc1[N+](=O)[O-] | 5.36 | 
49 | CCn1cc(C(=O)O)c(=O)c2cc(F)c(N3CCN(C(=S)NC(=O)c4cc(OC)cc(OC)c4)CC3)cc21 | 5.54 | 
50 | FC(F)(F)c1cccc(-c2nc3nc(Cl)c(Cl)nc3[nH]2)c1 | 5.18 | 
51 | CC(C)Cn1c2c(c(O)c(C(=O)Nc3ncccc3O)c1=O)CCCC2 | 5.63 | 
52 | N#Cc1c(-c2c(Cl)cccc2Cl)noc1/C=C/Nc1ccc(C(=O)O)cc1 | 5.34 | 
